# Measurements: US20190388425A1, “SUBSTITUTED IMIDAZOPYRIDINPYRIMIDINES” (Bayer Pharma Aktiengesellschaft, priority 2017, published 2019)
# Target: T1, human full-length MKNK1 (Homo sapiens, UniProt Q9BUB5, T385D)
# T1 construct: GST (N); purchased Carna Biosciences 02-145; host or cells: insect cells (baculovirus expression system)
# Test: MKNK1 kinase high ATP assay (TR-FRET)
# Format: biochemical
# Conditions: TR-FRET, 2 mM ATP (high ATP), 15 min preincubation with enzyme, 30 min reaction at 22° C.; read-out: MKNK1 IC50
# Summary of the method: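 Full-length human MKNK1 (T385D) preincubated 15 min at 22 °C with compound in HEPES pH 7.5/MgCl2/DTT buffer; reaction with 2 mM ATP (final) and 0.06 μM biotinylated peptide (final), 30 min at 22 °C.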
# T1 sequence (Q9BUB5 1-424 isoform Q9BUB5-2 T344D): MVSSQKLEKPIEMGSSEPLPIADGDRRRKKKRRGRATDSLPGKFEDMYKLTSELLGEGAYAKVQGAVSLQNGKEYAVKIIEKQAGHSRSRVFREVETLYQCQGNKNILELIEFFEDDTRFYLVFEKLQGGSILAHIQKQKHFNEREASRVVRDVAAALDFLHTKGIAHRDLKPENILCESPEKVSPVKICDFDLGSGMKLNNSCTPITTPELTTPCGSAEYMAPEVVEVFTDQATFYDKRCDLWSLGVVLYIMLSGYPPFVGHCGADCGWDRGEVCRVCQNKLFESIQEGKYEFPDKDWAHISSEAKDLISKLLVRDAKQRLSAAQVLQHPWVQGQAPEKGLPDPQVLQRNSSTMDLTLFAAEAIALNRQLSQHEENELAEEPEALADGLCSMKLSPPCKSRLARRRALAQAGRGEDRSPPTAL
row,Structure (SMILES),IC50 [nM]
1,"Cc1cc(Nc2ncnc3sc4c(c23)CC[C@H](C(=O)N2CC[C@H](N(C)C)C2)C4)c(=O)n2c1C(=O)NC21CCC(F)(F)CC1 [Example 56, 6′-{[(7S)-7-{[(3S)-3-(Dimethylamino)pyrrolidin-1-yl]carbonyl}-5,6,7,8-tetrahydro[1]benzothieno[2,3-d]pyrimidin-4-yl]amino}-4,4-difluoro-8′-methyl-2′H-spiro[cyclohexane-1,3′-imidazo[1,5-a]pyridine]-1′,5′-dione]",2
2,"Cc1cc(Nc2ncnc3sc4c(c23)CC[C@H](C(=O)N2CCN(C)[C@H](C)C2)C4)c(=O)n2c1C(=O)NC21CCC(F)(F)CC1 [Example 57, 6′-{[(7S)-7-{[(3R)-3,4-Dimethylpiperazin-1-yl]carbonyl}-5,6,7,8-tetrahydro[1]benzothieno[2,3-d]pyrimidin-4-yl]amino}-4,4-difluoro-8′-methyl-2′H-spiro[cyclohexane-1,3′-imidazo[1,5-a]pyridine]-1′,5′-dione]",1.4
3,"Cc1cc(Nc2ncnc3sc4c(c23)CC[C@H](C(=O)N2C[C@H]3C[C@@H]2CO3)C4)c(=O)n2c1C(=O)NC21CCC(F)(F)CC1 [Example 58, 4,4-Difluoro-8′-methyl-6′-({(7S)-7-[(1R,4R)-2-oxa-5-azabicyclo[2.2.1]hept-5-ylcarbonyl]-5,6,7,8-tetrahydro[1]benzothieno[2,3-d]pyrimidin-4-yl}amino)-2′H-spiro[cyclohexane-1,3′-imidazo[1,5-a]pyridine]-1′,5′-dione]",0.5
4,"Cc1cc(Nc2ncnc3sc4c(c23)CC[C@H](C(=O)O)C4)c(=O)n2c1C(=O)N[C@]21CC[C@@](O)(C(F)(F)F)CC1 [Example 59, (7S)-4-{[(cis)-4-Hydroxy-8′-methyl-1′,5′-dioxo-4-(trifluoromethyl)-1′,5′-dihydro-2′H-spiro[cyclohexane-1,3′-imidazo[1,5-a]pyridin]-6′-yl]amino}-5,6,7,8-tetrahydro[1]benzothieno[2,3-d]pyrimidine-7-carboxylic acid]",37.9
5,"Cc1cc(Nc2ncnc3sc4c(c23)CC[C@H](C(=O)N(C)C)C4)c(=O)n2c1C(=O)N[C@]21CC[C@@](O)(C(F)(F)F)CC1 [Example 60, (7S)-4-{[(cis)-4-Hydroxy-8′-methyl-1′,5′-dioxo-4-(trifluoromethyl)-1′,5′-dihydro-2′H-spiro[cyclohexane-1,3′-imidazo[1,5-a]pyridin]-6′-yl]amino}-N,N-dimethyl-5,6,7,8-tetrahydro[1]benzothieno[2,3-d]pyrimidine-7-carboxamide]",9.5
6,"Cc1cc(Nc2ncnc3sc4c(c23)CC[C@H](C(=O)N2CCC2)C4)c(=O)n2c1C(=O)N[C@]21CC[C@@](O)(C(F)(F)F)CC1 [Example 61, (cis)-6′-{[(7S)-7-(Azetidin-1-ylcarbonyl)-5,6,7,8-tetrahydro[1]benzothieno[2,3-d]pyrimidin-4-yl]amino}-4-hydroxy-8′-methyl-4-(trifluoromethyl)-2′H-spiro[cyclohexane-1,3′-imidazo[1,5-a]pyridine]-1′,5′-dione]",8.4
7,Cc1cc(Nc2ncnc3sc4c(c23)CC[C@H](C(=O)N2CC(N(C)C)C2)C4)c(=O)n2c1C(=O)N[C@]21CC[C@@](O)(C(F)(F)F)CC1 [Example 62],6.5
8,"Cc1cc(Nc2ncnc3sc4c(c23)CC[C@H](C(=O)N2CC[C@H](N(C)C)C2)C4)c(=O)n2c1C(=O)N[C@]21CC[C@@](O)(C(F)(F)F)CC1 [Example 63, (cis)-6′-{[(7S)-7-{[(3S)-3-(Dimethylamino)pyrrolidin-1-yl]carbonyl}-5,6,7,8-tetrahydro[1]benzothieno[2,3-d]pyrimidin-4-yl]amino}-4-hydroxy-8′-methyl-4-(trifluoromethyl)-2′H-spiro[cyclohexane-1,3′-imidazo[1,5-a]pyridine]-1′,5′-dione]",1.6
9,"Cc1cc(Nc2ncnc3sc4c(c23)CC[C@H](C(=O)N2C[C@H]3C[C@@H]2CO3)C4)c(=O)n2c1C(=O)N[C@]21CC[C@@](O)(C(F)(F)F)CC1 [Example 64, (cis)-4-Hydroxy-8′-methyl-6′-({(7S)-7-[(1R,4R)-2-oxa-5-azabicyclo[2.2.1]hept-5-ylcarbonyl]-5,6,7,8-tetrahydro[1]benzothieno[2,3-d]pyrimidin-4-yl}amino)-4-(trifluoromethyl)-2′H-spiro[cyclohexane-1,3′-imidazo[1,5-a]pyridine]-1′,5′-dione]",3.8
10,"Cc1cc(Nc2ncnc3sc4c(c23)CC[C@H](C(=O)N(C)C)C4)c(=O)n2c1C(=O)NC21CS(=O)(=O)C1 [Example 66, (7S)—N,N-Dimethyl-4-[(8-methyl-1′,1′-dioxido-1,5-dioxo-1,5-dihydro-2H-spiro[imidazo[1,5-a]pyridine-3,3′-thietan]-6-yl)amino]-5,6,7,8-tetrahydro[1]benzothieno[2,3-d]pyrimidine-7-carboxamide]",3.1
11,"Cc1cc(Nc2ncnc3sc4c(c23)CC[C@H](C(=O)N2CCC2)C4)c(=O)n2c1C(=O)NC21CS(=O)(=O)C1 [Example 67, 6-{[(7S)-7-(Azetidin-1-ylcarbonyl)-5,6,7,8-tetrahydro[1]benzothieno[2,3-d]pyrimidin-4-yl]amino}-8-methyl-2H-spiro[imidazo[1,5-a]pyridine-3,3′-thietane]-1,5-dione 1′,1′-dioxide]",2
12,"Cc1cc(Nc2ncnc3sc4c(c23)CC[C@H](C(=O)N2CC(C#N)C2)C4)c(=O)n2c1C(=O)NC21CS(=O)(=O)C1 [Example 68, 1-({(7S)-4-[(8-Methyl-1′,1′-dioxido-1,5-dioxo-1,5-dihydro-2H-spiro[imidazo[1,5-a]pyridine-3,3′-thietan]-6-yl)amino]-5,6,7,8-tetrahydro[1]benzothieno[2,3-d]pyrimidin-7-yl}carbonyl)azetidine-3-carbonitrile]",2.5
13,"Cc1cc(Nc2ncnc3sc4c(c23)CC[C@H](C(=O)N2CC(N(C)C)C2)C4)c(=O)n2c1C(=O)NC21CS(=O)(=O)C1 [Example 69, 6-{[(7S)-7-{[3-(Dimethylamino)azetidin-1-yl]carbonyl}-5,6,7,8-tetrahydro[1]benzothieno[2,3-d]pyrimidin-4-yl]amino}-8-methyl-2H-spiro[imidazo[1,5-a]pyridine-3,3′-thietane]-1,5-dione 1′,1′-dioxide]",2
14,"Cc1cc(Nc2ncnc3sc4c(c23)CC[C@H](C(=O)N2CC[C@H](N(C)C)C2)C4)c(=O)n2c1C(=O)NC21CS(=O)(=O)C1 [Example 70, 6-{[(7S)-7-{[(3S)-3-(Dimethylamino)pyrrolidin-1-yl]carbonyl}-5,6,7,8-tetrahydro[1]benzothieno[2,3-d]pyrimidin-4-yl]amino}-8-methyl-2H-spiro[imidazo[1,5-a]pyridine-3,3′-thietane]-1,5-dione 1′,1′-dioxide]",0.8
15,"Cc1cc(Nc2ncnc3sc4c(c23)CC[C@H](C(=O)N2CCN(C)[C@H](C)C2)C4)c(=O)n2c1C(=O)NC21CS(=O)(=O)C1 [Example 71, 6-{[(7S)-7-{[(3R)-3,4-Dimethylpiperazin-1-yl]carbonyl}-5,6,7,8-tetrahydro[1]benzothieno[2,3-d]pyrimidin-4-yl]amino}-8-methyl-2H-spiro[imidazo[1,5-a]pyridine-3,3′-thietane]-1,5-dione 1′,1′-dioxide]",0.8
16,"Cc1cc(Nc2ncnc3sc4c(c23)CC[C@H](C(=O)N2C[C@H]3C[C@@H]2CO3)C4)c(=O)n2c1C(=O)NC21CS(=O)(=O)C1 [Example 72, 8-Methyl-6-({(7S)-7-[(1R,4R)-2-oxa-5-azabicyclo[2.2.1]hept-5-ylcarbonyl]-5,6,7,8-tetrahydro[1]benzothieno[2,3-d]pyrimidin-4-yl}amino)-2H-spiro[imidazo[1,5-a]pyridine-3,3′-thietane]-1,5-dione 1′,1′-dioxide]",0.7
17,"O=C1NC2(CCCCC2)n2c1c(Cl)cc(Nc1ncnc3sc4c(c13)CC[C@H](C(=O)O)C4)c2=O [Example 73, (7S)-4-[(8′-Chloro-1′,5′-dioxo-1′,5′-dihydro-2′H-spiro[cyclohexane-1,3′-imidazo[1,5-a]pyridin]-6′-yl)amino]-5,6,7,8-tetrahydro[1]benzothieno[2,3-d]pyrimidine-7-carboxylic acid]",1.6
18,"NC(=O)[C@H]1CCc2c(sc3ncnc(Nc4cc(Cl)c5n(c4=O)C4(CCCCC4)NC5=O)c23)C1 [Example 74, (7S)-4-[(8′-Chloro-1′,5′-dioxo-1′,5′-dihydro-2′H-spiro[cyclohexane-1,3′-imidazo[1,5-a]pyridin]-6′-yl)amino]-5,6,7,8-tetrahydro[1]benzothieno[2,3-d]pyrimidine-7-carboxamide]",0.9
19,"CN(C)C(=O)[C@H]1CCc2c(sc3ncnc(Nc4cc(Cl)c5n(c4=O)C4(CCCCC4)NC5=O)c23)C1 [Example 75, (7S)-4-[(8′-Chloro-1′,5′-dioxo-1′,5′-dihydro-2′H-spiro[cyclohexane-1,3′-imidazo[1,5-a]pyridin]-6′-yl)amino]-N,N-dimethyl-5,6,7,8-tetrahydro[1]benzothieno[2,3-d]pyrimidine-7-carboxamide]",1.7
20,"O=C1NC2(CCCCC2)n2c1c(Cl)cc(Nc1ncnc3sc4c(c13)CC[C@H](C(=O)N1CCC1)C4)c2=O [Example 76, 6′-{[(7S)-7-(Azetidin-1-ylcarbonyl)-5,6,7,8-tetrahydro[1]benzothieno[2,3-d]pyrimidin-4-yl]amino}-8′-chloro-2′H-spiro[cyclohexane-1,3′-imidazo[1,5-a]pyridine]-1′,5′-dione]",0.9
21,"N#CC1CN(C(=O)[C@H]2CCc3c(sc4ncnc(Nc5cc(Cl)c6n(c5=O)C5(CCCCC5)NC6=O)c34)C2)C1 [Example 77, 1-({(7S)-4-[(8′-Chloro-1′,5′-dioxo-1′,5′-dihydro-2′H-spiro[cyclohexane-1,3′-imidazo[1,5-a]pyridin]-6′-yl)amino]-5,6,7,8-tetrahydro[1]benzothieno[2,3-d]pyrimidin-7-yl}carbonyl)azetidine-3-carbonitrile]",0.8
